Measurements published in ChEMBL document CHEMBL1129370, “Synthesis, ligand binding, and quantitative structure-activity relationship study of 3 beta-(4'-substituted phenyl)-2 beta-heterocyclic tropanes: evidence for an electrostatic interaction at the 2 beta-position” (J Med Chem, 1996).

Key:
[1] = target: T1, Sodium-dependent dopamine transporter (Rattus norvegicus, UniProt P23977); experiment: Binding affinity against Dopamine transporter using [3H]WIN-35 428 in rat striatum; type: tissue-based
T1 sequence (P23977 whole entry): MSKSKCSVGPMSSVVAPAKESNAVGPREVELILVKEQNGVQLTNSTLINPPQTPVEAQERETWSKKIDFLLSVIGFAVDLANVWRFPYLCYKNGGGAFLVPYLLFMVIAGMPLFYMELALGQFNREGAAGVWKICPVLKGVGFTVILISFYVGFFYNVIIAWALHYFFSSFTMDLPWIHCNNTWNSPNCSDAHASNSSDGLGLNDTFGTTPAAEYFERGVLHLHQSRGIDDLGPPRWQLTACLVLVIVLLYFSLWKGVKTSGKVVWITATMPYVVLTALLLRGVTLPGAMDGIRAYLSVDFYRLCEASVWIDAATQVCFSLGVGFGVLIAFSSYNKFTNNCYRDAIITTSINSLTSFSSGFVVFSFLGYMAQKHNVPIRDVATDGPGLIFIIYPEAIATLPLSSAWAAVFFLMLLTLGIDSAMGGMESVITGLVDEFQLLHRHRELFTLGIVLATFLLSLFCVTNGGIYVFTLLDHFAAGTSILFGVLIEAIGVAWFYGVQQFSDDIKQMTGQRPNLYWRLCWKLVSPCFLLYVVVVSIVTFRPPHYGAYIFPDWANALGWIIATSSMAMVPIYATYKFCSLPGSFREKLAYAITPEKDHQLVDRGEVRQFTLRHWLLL

[2] = target: T1, Sodium-dependent dopamine transporter; experiment: Ability to inhibition uptake of […]
[3] = target: Norepinephrine transporter (Rattus norvegicus, UniProt Q9WTR4); experiment: Binding affinity against Norepinephrine transporter using [3H]nisoxetine in midbrain of rat; type: tissue-based
Norepinephrine transporter, sequence (Q9WTR4 whole entry): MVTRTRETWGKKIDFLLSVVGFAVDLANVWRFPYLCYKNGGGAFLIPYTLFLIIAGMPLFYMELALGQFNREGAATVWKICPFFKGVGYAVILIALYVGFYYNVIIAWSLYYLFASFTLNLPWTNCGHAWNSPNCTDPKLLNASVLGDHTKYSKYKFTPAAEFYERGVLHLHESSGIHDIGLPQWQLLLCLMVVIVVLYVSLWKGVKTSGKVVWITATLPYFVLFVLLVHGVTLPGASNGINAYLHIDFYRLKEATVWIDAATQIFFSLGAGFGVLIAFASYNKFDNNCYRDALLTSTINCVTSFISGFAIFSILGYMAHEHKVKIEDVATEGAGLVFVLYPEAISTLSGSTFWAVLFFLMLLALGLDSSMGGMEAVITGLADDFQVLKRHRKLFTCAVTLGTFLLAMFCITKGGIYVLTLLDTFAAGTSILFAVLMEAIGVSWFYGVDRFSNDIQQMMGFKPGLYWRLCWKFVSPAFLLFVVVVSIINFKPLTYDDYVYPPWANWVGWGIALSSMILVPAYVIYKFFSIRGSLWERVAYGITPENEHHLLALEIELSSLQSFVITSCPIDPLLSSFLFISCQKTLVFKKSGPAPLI

[4] = target: Sodium-dependent serotonin transporter (Rattus norvegicus, UniProt P31652); experiment: Binding affinity against serotonin transporter using [3H]paroxetine in rat frontal cortex; type: tissue-based
Sodium-dependent serotonin transporter, sequence (P31652 whole entry): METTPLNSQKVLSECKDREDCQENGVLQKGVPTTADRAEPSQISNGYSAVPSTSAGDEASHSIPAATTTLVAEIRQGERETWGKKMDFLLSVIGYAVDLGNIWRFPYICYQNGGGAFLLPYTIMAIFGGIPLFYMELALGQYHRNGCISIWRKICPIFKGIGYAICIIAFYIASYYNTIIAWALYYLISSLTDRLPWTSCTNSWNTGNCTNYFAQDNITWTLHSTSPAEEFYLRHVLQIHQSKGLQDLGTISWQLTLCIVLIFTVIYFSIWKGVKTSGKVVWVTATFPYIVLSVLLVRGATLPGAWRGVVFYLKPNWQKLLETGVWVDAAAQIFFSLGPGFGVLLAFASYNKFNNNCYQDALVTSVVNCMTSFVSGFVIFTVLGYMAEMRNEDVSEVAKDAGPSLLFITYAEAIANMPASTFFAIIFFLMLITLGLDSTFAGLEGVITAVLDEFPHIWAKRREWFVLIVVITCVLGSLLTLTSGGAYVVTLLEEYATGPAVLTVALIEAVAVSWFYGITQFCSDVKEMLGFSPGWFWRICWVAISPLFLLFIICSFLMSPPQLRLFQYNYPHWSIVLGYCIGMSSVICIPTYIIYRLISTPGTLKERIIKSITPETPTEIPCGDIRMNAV

[5] = target: T1, Sodium-dependent dopamine transporter; experiment: Ability to inhibit [3H]dopamine uptake into rat striatal synaptosomes; type: subcellular, Brain

Row | Compound | IC50 [1] [nM] | Ki [2] [nM] | IC50 [3] [nM] | IC50 [4] [nM] | Ki [5] [nM]
1 | CN1C2CC[C@@H]1CC(c1ccc(Cl)cc1)[C@@H]2C(=O)Oc1ccccc1 (some centres not stated) | 1.98 | 5.25 | 2950 | 2300 | 
2 | Cc1ccc(C2C[C@H]3CCC([C@H]2c2cc(-c4ccccc4)no2)N3C)cc1 (some centres not stated) | 1.58 |  | 398 | 5110 | 
3 | CN1C2CC[C@@H]1CC(c1ccc(Cl)cc1)[C@@H]2c1ncc(-c2ccccc2)s1 (some centres not stated) | 5.71 |  | 8560 | 10300 | 
4 | CN1C2CC[C@@H]1CC(c1ccc(I)cc1)[C@@H]2c1cc(-c2ccccc2)no1 (some centres not stated) | 2.57 |  | 868 | 100 | 
5 | Cc1ccc(C2C[C@H]3CCC([C@H]2c2cc(C)no2)N3C)cc1 (some centres not stated) | 0.93 |  | 254 | 3820 | 
6 | CN1C2CC[C@@H]1CC(c1ccc(Cl)cc1)[C@@H]2C(=O)O (some centres not stated) | 2070 |  | > 200000 | 59500 | 
7 | CN1C2CC[C@@H]1CC(c1ccc(Cl)cc1)[C@@H]2c1nnn[nH]1 (some centres not stated) |  |  | 17400 | 5460 | 
8 | Cc1ccc(C2C[C@H]3CCC([C@H]2c2ncc(-c4ccccc4)o2)N3C)cc1 (some centres not stated) | 35.4 |  | 677 | 1700 | 
9 | Cc1ccc(C2C[C@H]3CCC([C@H]2c2nnc(-c4ccccc4)s2)N3C)cc1 (some centres not stated) | 35.9 |  | 24300 | 51500 | 
10 | CN1C2CCC1[C@@H](c1ncc(-c3ccccc3)o1)C(c1ccc(Cl)cc1)C2 (some centres not stated) | 19.7 |  | 496 | 1120 | 19
11 | Cc1ccc(C2C[C@H]3CCC([C@H]2C(=O)Oc2ccccc2)N3C)cc1 (some centres not stated) | 3.26 |  | 5800 | 24500 | 
12 | Cc1ccc(C2C[C@H]3CCC([C@H]2c2nnc(-c4ccccc4)o2)N3C)cc1 (some centres not stated) | 47.5 |  | 1310 | 23300 | 
13 | Cc1ccc(C2C[C@H]3CCC([C@H]2c2nc(-c4ccccc4)no2)N3C)cc1 (some centres not stated) | 2.33 |  | 60 | 1070 | 
14 | Cc1ccc(C2C[C@H]3CCC([C@@H]2c2nnc(-c4ccccc4)o2)N3C)cc1 (some centres not stated) | 523 |  | 48700 | 65000 | 
15 | Cc1ccc(C2C[C@H]3CCC([C@H]2c2nn[nH]n2)N3C)cc1 (some centres not stated) | 1560 |  | 32500 | 43600 | 
16 | CN1C2CC[C@@H]1CC(c1ccc(Cl)cc1)[C@H]2c1nnc(-c2ccccc2)o1 (some centres not stated) | 1100 |  | 286000 | 19200 | 
17 | CN1C2CCC1[C@@H](c1nc(-c3ccccc3)no1)C(c1ccc(Cl)cc1)C2 (some centres not stated) | 1.62 |  | 245 | 195 | 0.59
18 | Cc1cc([C@H]2C(c3ccc(Cl)cc3)C[C@H]3CCC2N3C)on1 (some centres not stated) | 0.59 |  | 181 | 572 | 
19 | CN1C2CC[C@@H]1CC(c1ccc(Cl)cc1)[C@@H]2c1nnc(-c2ccccc2)o1 (some centres not stated) | 12.6 |  | 929 | 3300 | 18.7
20 | COC(=O)[C@@H]1C2CC[C@H](C[C@@H]1c1ccc(C)cc1)N2C |  |  | 60 |  | 
21 | CN1C2CC[C@@H]1CC(c1ccc(Cl)cc1)[C@@H]2c1nc2ccccc2s1 (some centres not stated) | 1.37 |  | 403 | 1120 | 
22 | CN1C2CC[C@@H]1CC(c1ccc(Cl)cc1)[C@@H]2c1cc(-c2ccccc2)no1 (some centres not stated) | 1.28 |  | 504 | 2420 | 2.08
23 | Cc1noc([C@H]2C(c3ccc(Cl)cc3)C[C@H]3CCC2N3C)n1 (some centres not stated) |  |  | 363 | 2580 | 
24 | CN1C2CC[C@@H]1CC(c1ccc(Cl)cc1)[C@H]2c1nc2ccccc2s1 (some centres not stated) | 188 |  | 59500 | 5210 | 
25 | Cc1ccc(C2C[C@H]3CCC([C@H]2c2nnc(C)o2)N3C)cc1 (some centres not stated) | 4.45 |  | 253 | 4890 | 
26 | CN1C2CCC1[C@@H](c1nnc(-c3ccccc3)s1)C(c1ccc(Cl)cc1)C2 (some centres not stated) | 15.3 |  | 4140 | 18400 | 
27 | Cc1cc([C@H]2C(c3ccc(I)cc3)C[C@H]3CCC2N3C)on1 (some centres not stated) | 0.73 |  | 67.9 | 36.4 | 
